Data on two substances can be found in patent publication US7244583B2, “Device for detecting bacterial contamination and method of use” (priority 2000, dated 2007).

*: point of attachment. DABSYL = CN(C)c1ccc(/N=N/c2ccc(S(=O)(=O)*)cc2)cc1; EDANS = O=S(=O)(O)c1cccc2c(NCCN*)cccc12

One assay concerns mpl. Put plainly: FRET analysis of mpl activity with DABCYL/EDANS-labeled peptide substrates (Listeria). The format is biochemical, Listeria monocytogenes. Particulars: FRET peptide probe. From the text: The presence of L. monocytogenes contamination is detected by measuring the metalloprotease (mpl), which is found only in the pathogenic species of L. monocytogenes (Domann et al., infection and Immunity. 1991. January; 59(1):65-72; Mengaud et al., 1991). A series of peptides, M1 (lot 038-13/15) and P1 (lot 038-10/12), for use as synthetic substrates for mpl (Table 1) was designed and the sequences manufactured by New England Peptide (195 Kimball St., Fitchburg, Mass.). The peptides were synthesized with fluorescent groups (DABCYL and EDANS) in such a way that the active sites were not blocked. The M1 peptide is specific for L. monocytogenes at pH 5.5.
Fluorescence resonance energy transfer (FRET) is the process of a distance dependent excited state interaction in which the emission of one fluorescent molecule is coupled to the excitation of another. […] The cleavage reaction can be followed by observing either a decrease in DABCYL fluorescence or an increase in EDANS fluorescence (loss of quenching).
Determine the peptide sequence for the active site of the protease using fluorescence resonance energy transfer (FRET). Fluorescence resonance energy transfer (FRET) is the process of a distance dependent excited state interaction in which the emission of one fluorescent molecule is coupled to the excitation of another. […]

Another assay relates to E. coli. Put plainly: FRET peptide substrate cleavage/detection with E. coli. It is filed as biochemical. The conditions noted are these: FRET peptide probe.

“DABSYL-ADTVEPTGAKE-EDANS ({DABSYL}-ADTVEPTGAKE-{EDANS}; SMILES CC(C)[C@H](NC(=O)[C@@H](NC(=O)[C@H](CC(=O)O)NC(=O)[C@H](C)NS(=O)(=O)c1ccc(/N=N/c2ccc(N(C)C)cc2)cc1)[C@@H](C)O)C(=O)N[C@@H](CCC(=O)O)C(=O)N1CCC[C@H]1C(=O)N[C@H](C(=O)NCC(=O)N[C@@H](C)C(=O)N[C@@H](CCCCN)C(=O)N[C@@H](CCC(=O)O)C(=O)NCCNc1cccc2c(S(=O)(=O)O)cccc12)[C@@H](C)O) [Peptide P2, FRET-labeled synthetic peptide probe]”: the “Description: cleavage by Listeria” value in the assay with mpl is on record as “Not cleaved”. Also, the “Description: cleavage by E. coli” value in the assay on E. coli is recorded as “Not cleaved”.
As to “DABSYL-NML, SEVERE-EDANS ({DABSYL}-NMLSEVERE-{EDANS}; SMILES CSCC[C@H](NC(=O)[C@H](CC(N)=O)NS(=O)(=O)c1ccc(/N=N/c2ccc(N(C)C)cc2)cc1)C(=O)N[C@@H](CC(C)C)C(=O)N[C@@H](CO)C(=O)N[C@@H](CCC(=O)O)C(=O)N[C@H](C(=O)N[C@@H](CCC(=O)O)C(=O)N[C@@H](CCCNC(=N)N)C(=O)N[C@@H](CCC(=O)O)C(=O)NCCNc1cccc2c(S(=O)(=O)O)cccc12)C(C)C) [Peptide M1, FRET-labeled synthetic peptide substrate for mpl of L. monocytogenes (lot 038-13/15)]”, in the assay on mpl (pH 5.5), the “Description: specificity of peptide substrate for Listeria (L. monocytogenes)” value is on record as “Specific to”. Further, in the assay on E. coli (pH 5.5), the “detection of the presence of E. coli by the peptide” value is on record as “does not significantly detect”.
